In patent US5948802A, “Benzoate derivatives of diaryl 1,3,4-oxadiazolone” (Bristol-Myers Squibb Company, priority 1999, dated 1999):
Where a name gives a salt, the structure may show the parent alone.

Columns and labels:
[1] = system: focal cerebral ischemia; test: Focal stroke model: permanent MCA and CCA occlusion, cortical infarct volume; assay type: in vivo, Wistar rat; conditions: 10 μg/kg i.v. single bolus two hours after MCA occlusion; measured 24 hours after MCAO; vs vehicle-treated (water) control
Method: To determine the ability of the compounds of the present invention to reduce cell loss resulting from neuronal ischemia, a standard focal cerebral ischemia is induced by permanent occlusion of the left middle cerebral artery (MCA) and common carotid artery (CCA) with one hour occlusion of the right CCA in the Wistar rat. The surgeries are performed using the sub-temporal approach of A. Tamura, et al., J. Cereb. Blood Flow Metab., 1, pp. 53-60, (1981) and its modifications [K. Osborne, et al., J. Neurol Neurosurg. Psychiatry, 50, pp. 402-410 (1987) and S. Menzies,et al., Neurosurgery, 31, pp. 100-107, (1992).]
The compound of Preparation 1 was evaluated in the focal stroke model involving permanent occlusion of the left MCA (MCAO) and CCA (CCAO) and temporary occlusion of the right CCA in the Wistar rat. This procedure results in a reliably large neocortical infarct volume that is measured by means of vital dye exclusion in serial slices through the brain 24 hours after MCAO. In the present test, compounds were administered using an i.v. or i.p. route of administration two hours after occlusion.

[2] = system: cloned mammalian (mSlo or hSlo) BK-mediated outward current; test: Increase of cloned BK-mediated outward current in Xenopus oocytes, two-electrode voltage clamp; assay type: cell-based; conditions: 1 μM; at least 5 oocytes; mSlo or hSlo expressed in Xenopus oocytes
Method: (§1) The ability of the compound of Preparation 1 to open BK channels and increase whole-cell outward (K^+) BK-mediated currents was assessed under voltage-clamp conditions by determining their ability to increase cloned mammalian (mSlo or hSlo) BK-mediated outward current heterologously expressed in Xenopus oocytes [Butler, A., et al., Science, 261, pp. 221-224 (1993); and Dworetzky, S. I., et al., Mol. Brain Res., 27, pp.189-193 (1994)]. The two BK constructs employed represent nearly structurally identical homologous proteins, and have proven to be pharmacologically identical in our tests. To isolate BK current from native (background, non-BK) current, the specific and potent BK channel-blocking toxin iberiotoxin (IBTX) [Galvez, A., et al., J. Biol. Chem, 265, pp. 11083-11090 (1990)] was employed at a supramaximal concentration (50 nM). The relative contribution of BK channels current to total outward current was determined by subtraction of the current remaining in the presence of IBTX (non-BK current) from the current profiles obtained in all other experimental conditions (control, drug, and wash). […]

[3] = system: non-BK native currents in the oocytes; test: Effect on non-BK (IBTX-insensitive) native currents in oocytes; assay type: cell-based, Xenopus; conditions: at the tested concentration
Method: as §1

[4] = Rapid screen of prodrug hydrolysis and drug release in plasma; assay type: in vitro ADME; conditions: 10 ug/mL in fresh rat plasma at 37° C.; analysis 5 minutes after incubation; stock 1 mg/mL in PEG-400
Method: A rapid screen to determine the ability of prodrugs to hydrolyze and release the drug (compound of Preparation 1) is conducted as follows. A 1 mg/mL stock solution of the prodrug is prepared in distilled water or acetonitrile or PEG-400. Plasma from freshly collected rat or human blood is used in this assay. To 1 mL of plasma at 37° C. was added 10 μL of stock solution of prodrug and mixed gently. Immediately after the mixing, 100 μL of plasma was removed and quenched with 300 μL of acetontrile (Zero time sample). Samples were also obtained at 30 minutes and quenched immediately. The quenched samples were centrifuged to obtain a clear supernatant for analysis. The stock solution, T=0 and T=30 samples were analyzed by a HPLC assay that separates the drug from the prodrug. Based on the relative peak areas of prodrug and drug in these samples, different prodrugs are characterized as fast, moderate and slow release agents. For example, in this model, the compound of Example 1 was dissolved in PEG-400 at a concentration of 1 mg/mL and incubated at 10 ug/mL in fresh rat plasma at 37° C.

| SMILES | reduction of cortical infarct volume [1] | BK current, % of control of IBTX-sensitive current [2] | effect on non-BK native currents in the oocytes [3] | conversion of prodrug to the compound of Preparation 1 [4] |
| --- | --- | --- | --- | --- |
| O=c1oc(-c2ccc(C(F)(F)F)cc2)nn1Cc1cc(Cl)ccc1O [Preparation 1, 3-[(5-Chloro-2-hydroxyphenyl)methyl]-5-[4-(trifluoromethyl)phenyl]-1,3,4-oxadiazol-2(3H)-one] | about 18% | 126% | did not effect non-BK native currents | – |
| CCN(CC)Cc1ccc(C(=O)Oc2ccc(Cl)cc2Cn2nc(-c3ccc(C(F)(F)F)cc3)oc2=O)cc1 [Example 1, 4-Chloro-2-[[5-[4-(trifluoromethyl)phenyl]-2,3-dihydro-2-oxo-1,3,4-oxadiazol-3-yl]methyl]phenyl 4-[(diethylamino)-methylbenzoate hydrochloride] | – | – | – | indicated conversion of the compound of Example 1 to the compound of Preparation 1 |
